Read-outs that look alike come from different tables or passages of the source.
What was measured:
Assay in all cases: DiscoverX KINOMEscan kinase profiling (468 assays)
Format in all cases: binding
[1] = target: human kinome (Homo sapiens, UniProt P54646); conditions: AMPK-alpha2 (Entrez PRKAA2); 100 nM; read-out: Percent Control
In short: (§1)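 VIP152 was run in DMSO, alongside a DMSO control. Readout was qPCR of DNA-tagged kinase still bound to bead-immobilized biotinylated kinase ligands after compound competition.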

[2] = target: human kinome (Homo sapiens, UniProt P07333); conditions: 100 nM, read-out: Percent Control
In short: as §1

[3] = target: human kinome (Homo sapiens, UniProt Q9HBY8); conditions: kinase SGK2 (Entrez SGK2); compound concentration 1000 nM; read-out: Percent Control
In short: as §1

[4] = target: human kinome (Homo sapiens, UniProt P35968); conditions: kinase VEGFR2 (Entrez KDR); compound concentration 1000 nM; read-out: Percent Control
In short: as §1

[5] = target: human kinome (Homo sapiens, UniProt Q8NE63); conditions: HIPK4; 100 nM; read-out: Percent Control
In short: as §1

[6] = target: human kinome (Homo sapiens, UniProt P35916); conditions: FLT4; 100 nM; read-out: Percent Control
In short: as §1

[7] = target: human kinome (Homo sapiens, UniProt Q56UN5); conditions: kinase YSK4 (Entrez MAP3K19); compound concentration 1000 nM; read-out: Percent Control
In short: as §1

[8] = target: human kinome (Homo sapiens, UniProt Q9BWU1); conditions: CDK11 (Entrez CDK19); 100 nM; read-out: Percent Control
In short: as §1

[9] = target: human kinome (Homo sapiens, UniProt O95382); conditions: ASK2 (Entrez MAP3K6); 100 nM; read-out: Percent Control
In short: as §1

[10] = target: human kinome (Homo sapiens, UniProt P35590); conditions: kinase TIE1 (Entrez TIE1); compound concentration 1000 nM; read-out: Percent Control
In short: as §1

[11] = target: human kinome (Homo sapiens, UniProt Q6ZWH5); conditions: read-out: Percent Control
In short: as §1

[12] = target: human kinome (Homo sapiens, UniProt O14578); conditions: CIT; 100 nM; read-out: Percent Control
In short: as §1

[13] = target: human kinome (Homo sapiens, UniProt P23443); conditions: kinase S6K1 (Entrez RPS6KB1); compound concentration 1000 nM; read-out: Percent Control
In short: as §1

[14] = target: human kinome (Homo sapiens, UniProt Q9NYY3); conditions: read-out: Percent Control
In short: as §1

[15] = target: human kinome (Homo sapiens, UniProt Q99683); conditions: ASK1 (Entrez MAP3K5); 100 nM; read-out: Percent Control
In short: as §1

[16] = target: human kinome (Homo sapiens, UniProt Q15375); conditions: EPHA7; 100 nM; read-out: Percent Control
In short: as §1

[17] = target: human kinome (Homo sapiens, UniProt Q9P0L2); conditions: MARK1; 100 nM; read-out: Percent Control
In short: as §1

[18] = target: human kinome (Homo sapiens, UniProt P27448); conditions: MARK3; 100 nM; read-out: Percent Control
In short: as §1

[19] = target: human kinome (Homo sapiens, UniProt Q9HBH9); conditions: MKNK2; 100 nM; read-out: Percent Control
In short: as §1

[20] = target: human kinome (Homo sapiens, UniProt P53671); conditions: LIMK2; 100 nM; read-out: Percent Control
In short: as §1

[21] = target: human kinome (Homo sapiens, UniProt Q96PY6); conditions: read-out: Percent Control
In short: as §1

[22] = target: human kinome (Homo sapiens, UniProt Q15835); conditions: GRK1; 100 nM; read-out: Percent Control
In short: as §1

[23] = target: human kinome (Homo sapiens, UniProt Q12851); conditions: MAP4K2; 100 nM; read-out: Percent Control
In short: as §1

[24] = target: human kinome (Homo sapiens, UniProt Q9UEW8); conditions: kinase STK39 (Entrez STK39); compound concentration 1000 nM; read-out: Percent Control
In short: as §1

[25] = target: human kinome (Homo sapiens, UniProt Q9UK32); conditions: compound concentration 1000 nM, read-out: Percent Control
In short: as §1

[26] = target: human kinome (Homo sapiens, UniProt O14965); conditions: AURKA; 100 nM; read-out: Percent Control
In short: as §1

[27] = target: human kinome (Homo sapiens, UniProt P54756); conditions: EPHA5; 100 nM; read-out: Percent Control
In short: as §1

[28] = target: human kinome (Homo sapiens, UniProt Q15746); conditions: read-out: Percent Control
In short: as §1

[29] = target: human kinome (Homo sapiens, UniProt P15735); conditions: read-out: Percent Control
In short: as §1

[30] = target: human kinome (Homo sapiens, UniProt Q96D53); conditions: ADCK4; 100 nM; read-out: Percent Control
In short: as §1

Sequence of human kinome (Homo sapiens, UniProt Q6ZWH5) (Q6ZWH5 whole entry): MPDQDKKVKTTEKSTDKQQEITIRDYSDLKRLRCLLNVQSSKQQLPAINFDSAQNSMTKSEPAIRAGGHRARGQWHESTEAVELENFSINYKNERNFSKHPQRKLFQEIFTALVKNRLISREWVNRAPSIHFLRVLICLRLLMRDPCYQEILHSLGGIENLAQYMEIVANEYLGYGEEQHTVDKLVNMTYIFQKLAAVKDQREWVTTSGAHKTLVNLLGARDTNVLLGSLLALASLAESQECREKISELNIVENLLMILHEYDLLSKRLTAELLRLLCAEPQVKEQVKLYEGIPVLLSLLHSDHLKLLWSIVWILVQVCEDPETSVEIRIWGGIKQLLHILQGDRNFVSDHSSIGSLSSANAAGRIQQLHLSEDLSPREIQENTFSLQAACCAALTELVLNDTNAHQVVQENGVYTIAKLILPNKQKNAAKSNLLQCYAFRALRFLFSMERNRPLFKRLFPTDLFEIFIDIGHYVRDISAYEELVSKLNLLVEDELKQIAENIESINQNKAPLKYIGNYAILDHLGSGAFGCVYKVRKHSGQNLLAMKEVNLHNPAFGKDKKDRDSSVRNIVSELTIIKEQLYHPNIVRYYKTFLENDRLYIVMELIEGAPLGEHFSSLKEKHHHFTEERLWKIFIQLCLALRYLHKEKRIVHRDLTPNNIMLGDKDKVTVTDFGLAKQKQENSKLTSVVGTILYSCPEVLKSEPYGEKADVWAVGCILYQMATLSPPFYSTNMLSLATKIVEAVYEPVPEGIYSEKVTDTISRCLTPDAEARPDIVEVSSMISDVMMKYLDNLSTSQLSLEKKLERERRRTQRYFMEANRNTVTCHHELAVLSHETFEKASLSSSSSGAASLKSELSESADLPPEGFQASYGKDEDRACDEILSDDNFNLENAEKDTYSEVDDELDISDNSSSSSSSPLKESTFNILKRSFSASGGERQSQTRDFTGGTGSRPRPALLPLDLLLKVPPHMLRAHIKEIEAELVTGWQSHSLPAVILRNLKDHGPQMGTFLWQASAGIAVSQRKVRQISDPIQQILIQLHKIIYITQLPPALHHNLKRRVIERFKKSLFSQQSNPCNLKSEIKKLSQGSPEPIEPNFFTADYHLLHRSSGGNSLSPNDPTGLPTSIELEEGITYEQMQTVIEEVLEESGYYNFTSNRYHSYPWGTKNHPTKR
Sequence of human kinome (Homo sapiens, UniProt Q96PY6) (Q96PY6 whole entry): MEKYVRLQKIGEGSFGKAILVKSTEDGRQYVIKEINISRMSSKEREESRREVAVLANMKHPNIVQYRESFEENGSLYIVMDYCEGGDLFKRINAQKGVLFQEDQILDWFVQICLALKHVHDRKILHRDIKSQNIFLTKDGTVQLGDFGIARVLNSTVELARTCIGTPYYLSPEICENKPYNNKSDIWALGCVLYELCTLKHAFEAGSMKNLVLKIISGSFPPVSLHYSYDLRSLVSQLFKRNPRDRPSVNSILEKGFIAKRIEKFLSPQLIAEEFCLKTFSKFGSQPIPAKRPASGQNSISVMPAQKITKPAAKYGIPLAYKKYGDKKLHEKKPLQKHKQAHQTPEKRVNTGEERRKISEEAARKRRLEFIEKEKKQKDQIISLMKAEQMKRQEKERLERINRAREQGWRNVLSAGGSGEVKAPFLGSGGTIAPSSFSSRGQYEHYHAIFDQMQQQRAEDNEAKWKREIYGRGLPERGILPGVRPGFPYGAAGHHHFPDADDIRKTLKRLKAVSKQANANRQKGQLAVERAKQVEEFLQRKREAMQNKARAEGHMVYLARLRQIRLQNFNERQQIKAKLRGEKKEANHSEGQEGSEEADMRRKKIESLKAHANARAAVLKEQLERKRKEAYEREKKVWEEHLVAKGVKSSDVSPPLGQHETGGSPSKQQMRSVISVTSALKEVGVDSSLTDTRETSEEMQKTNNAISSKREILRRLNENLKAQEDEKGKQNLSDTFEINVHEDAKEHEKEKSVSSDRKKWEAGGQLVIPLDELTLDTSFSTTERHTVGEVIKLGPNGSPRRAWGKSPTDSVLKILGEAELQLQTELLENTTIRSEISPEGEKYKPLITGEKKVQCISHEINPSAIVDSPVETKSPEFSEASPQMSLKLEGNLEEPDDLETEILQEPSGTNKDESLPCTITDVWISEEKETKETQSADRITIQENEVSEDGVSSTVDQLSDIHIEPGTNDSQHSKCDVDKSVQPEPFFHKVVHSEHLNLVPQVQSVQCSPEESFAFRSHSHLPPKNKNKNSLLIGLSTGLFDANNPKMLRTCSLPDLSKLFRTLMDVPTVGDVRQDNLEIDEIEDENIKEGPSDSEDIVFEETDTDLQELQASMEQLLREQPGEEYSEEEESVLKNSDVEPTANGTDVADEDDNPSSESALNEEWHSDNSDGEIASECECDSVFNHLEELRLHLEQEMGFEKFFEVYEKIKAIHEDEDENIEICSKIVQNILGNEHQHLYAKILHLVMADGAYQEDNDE
Sequence of human kinome (Homo sapiens, UniProt P07333) (P07333 20-972): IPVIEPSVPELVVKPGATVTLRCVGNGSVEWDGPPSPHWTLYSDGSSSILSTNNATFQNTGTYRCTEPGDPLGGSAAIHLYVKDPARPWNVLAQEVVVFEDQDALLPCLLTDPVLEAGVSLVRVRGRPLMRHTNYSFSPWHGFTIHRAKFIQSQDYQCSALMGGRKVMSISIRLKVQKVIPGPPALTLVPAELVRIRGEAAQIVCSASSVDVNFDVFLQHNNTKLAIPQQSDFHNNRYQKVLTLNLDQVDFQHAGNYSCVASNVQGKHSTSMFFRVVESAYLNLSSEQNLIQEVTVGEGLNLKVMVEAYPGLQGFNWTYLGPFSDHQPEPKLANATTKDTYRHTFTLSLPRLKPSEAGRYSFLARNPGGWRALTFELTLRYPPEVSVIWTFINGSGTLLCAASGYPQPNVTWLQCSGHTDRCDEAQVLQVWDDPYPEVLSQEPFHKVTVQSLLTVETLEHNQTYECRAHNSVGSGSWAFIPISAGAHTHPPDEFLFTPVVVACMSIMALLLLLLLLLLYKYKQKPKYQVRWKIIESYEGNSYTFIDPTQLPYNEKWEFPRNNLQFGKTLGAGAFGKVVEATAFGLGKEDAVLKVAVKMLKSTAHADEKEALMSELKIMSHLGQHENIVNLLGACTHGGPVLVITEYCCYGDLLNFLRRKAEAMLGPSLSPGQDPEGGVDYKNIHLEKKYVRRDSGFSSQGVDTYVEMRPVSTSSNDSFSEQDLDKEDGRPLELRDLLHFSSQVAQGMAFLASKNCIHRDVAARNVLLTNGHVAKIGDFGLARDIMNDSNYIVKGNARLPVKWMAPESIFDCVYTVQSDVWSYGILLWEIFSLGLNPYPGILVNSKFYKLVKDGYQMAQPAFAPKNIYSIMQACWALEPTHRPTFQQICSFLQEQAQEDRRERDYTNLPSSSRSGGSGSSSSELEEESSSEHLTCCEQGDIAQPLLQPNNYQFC
Sequence of human kinome (Homo sapiens, UniProt Q9NYY3) (Q9NYY3 whole entry): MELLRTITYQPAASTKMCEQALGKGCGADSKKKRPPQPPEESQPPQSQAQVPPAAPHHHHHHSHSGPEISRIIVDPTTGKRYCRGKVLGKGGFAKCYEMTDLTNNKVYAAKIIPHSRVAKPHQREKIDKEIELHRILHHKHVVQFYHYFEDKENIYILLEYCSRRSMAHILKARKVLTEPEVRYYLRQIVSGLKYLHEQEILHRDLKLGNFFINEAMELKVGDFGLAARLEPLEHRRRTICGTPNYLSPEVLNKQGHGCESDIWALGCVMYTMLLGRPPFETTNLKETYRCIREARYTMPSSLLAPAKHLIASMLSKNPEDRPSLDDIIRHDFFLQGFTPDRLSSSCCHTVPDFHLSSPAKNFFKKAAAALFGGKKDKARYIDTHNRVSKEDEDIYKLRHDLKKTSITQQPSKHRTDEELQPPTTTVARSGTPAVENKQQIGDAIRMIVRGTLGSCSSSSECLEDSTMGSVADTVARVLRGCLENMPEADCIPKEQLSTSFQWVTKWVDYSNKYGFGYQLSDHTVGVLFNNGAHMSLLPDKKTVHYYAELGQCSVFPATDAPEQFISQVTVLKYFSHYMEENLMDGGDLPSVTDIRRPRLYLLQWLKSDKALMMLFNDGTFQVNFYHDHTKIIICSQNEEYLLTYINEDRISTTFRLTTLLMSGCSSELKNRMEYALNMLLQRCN
Sequence of human kinome (Homo sapiens, UniProt Q9UK32) (Q9UK32 whole entry): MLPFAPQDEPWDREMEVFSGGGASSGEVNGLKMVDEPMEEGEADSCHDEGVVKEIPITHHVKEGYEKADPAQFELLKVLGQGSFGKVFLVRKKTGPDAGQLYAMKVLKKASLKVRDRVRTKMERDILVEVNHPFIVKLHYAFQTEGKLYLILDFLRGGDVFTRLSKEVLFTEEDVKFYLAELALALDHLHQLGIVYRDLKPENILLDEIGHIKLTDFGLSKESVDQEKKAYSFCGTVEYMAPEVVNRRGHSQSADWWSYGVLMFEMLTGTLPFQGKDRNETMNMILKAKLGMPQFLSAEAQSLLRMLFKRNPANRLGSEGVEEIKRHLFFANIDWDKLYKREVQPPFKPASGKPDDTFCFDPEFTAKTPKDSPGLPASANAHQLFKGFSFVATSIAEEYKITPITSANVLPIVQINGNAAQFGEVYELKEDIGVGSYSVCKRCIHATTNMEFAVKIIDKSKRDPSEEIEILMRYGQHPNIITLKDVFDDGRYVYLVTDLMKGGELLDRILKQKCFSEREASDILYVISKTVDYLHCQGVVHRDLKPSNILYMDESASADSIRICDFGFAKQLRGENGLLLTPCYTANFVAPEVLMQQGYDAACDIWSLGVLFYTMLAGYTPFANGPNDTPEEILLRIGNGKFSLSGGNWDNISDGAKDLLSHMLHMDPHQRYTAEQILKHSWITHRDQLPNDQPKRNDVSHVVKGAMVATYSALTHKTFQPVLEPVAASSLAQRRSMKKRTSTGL

## COc1cc(F)ccc1-c1cc(Nc2cc(CS(C)(=N)=O)ccn2)ncc1F (stereo not shown) [VIP152]
[1]
  remaining binding at 0.1 µM: 100%
[2]; CSF1R-autoinhibited
  remaining binding at 0.1 µM: 95%
[2]; CSF1R
  remaining binding at 0.1 µM: 100%
[3]
  remaining binding at 1 µM: 73%
[4]
  remaining binding at 1 µM: 55%
[5]
  remaining binding at 0.1 µM: 100%
[6]
  remaining binding at 0.1 µM: 100%
[7]
  remaining binding at 1 µM: 19%
[8]
  remaining binding at 0.1 µM: 100%
[9]
  remaining binding at 0.1 µM: 100%
[10]
  remaining binding at 1 µM: 76%
[11]; NEK10, 100 nM
  remaining binding at 0.1 µM: 97%
[11]; kinase NEK10 (Entrez NEK10), compound concentration 1000 nM
  remaining binding at 1 µM: 77%
[12]
  remaining binding at 0.1 µM: 100%
[13]
  remaining binding at 1 µM: 100%
[14]; PLK2, 100 nM
  remaining binding at 0.1 µM: 100%
[14]; kinase PLK2 (Entrez PLK2), compound concentration 1000 nM
  remaining binding at 1 µM: 83%
[15]
  remaining binding at 0.1 µM: 100%
[16]
  remaining binding at 0.1 µM: 100%
[17]
  remaining binding at 0.1 µM: 82%
[18]
  remaining binding at 0.1 µM: 99%
[19]
  remaining binding at 0.1 µM: 95%
[20]
  remaining binding at 0.1 µM: 100%
[21]; NEK1, 100 nM
  remaining binding at 0.1 µM: 100%
[21]; kinase NEK1 (Entrez NEK1), compound concentration 1000 nM
  remaining binding at 1 µM: 99%
[22]
  remaining binding at 0.1 µM: 95%
[23]
  remaining binding at 0.1 µM: 80%
[24]
  remaining binding at 1 µM: 92%
[25]; kinase RSK4(Kin.Dom.1-N-terminal) (Entrez RPS6KA6)
  remaining binding at 1 µM: 94%
[25]; kinase RSK4(Kin.Dom.2-C-terminal) (Entrez RPS6KA6)
  remaining binding at 1 µM: 89%
[26]
  remaining binding at 0.1 µM: 100%
[27]
  remaining binding at 0.1 µM: 100%
[28]; MYLK, 100 nM
  remaining binding at 0.1 µM: 95%
[28]; kinase MYLK (Entrez MYLK), compound concentration 1000 nM
  remaining binding at 1 µM: 77%
[29]; PHKG2, 100 nM
  remaining binding at 0.1 µM: 100%
[29]; kinase PHKG2 (Entrez PHKG2), compound concentration 1000 nM
  remaining binding at 1 µM: 88%
[30]
  remaining binding at 0.1 µM: 100%

Reference: PMC9898036, “VIP152 is a selective CDK9 inhibitor with pre-clinical in vitro and in vivo efficacy in chronic lymphocytic leukemia” (Leukemia, 2022)
